The values that follow come from patent publication US8394828B2 (Janssen Pharmaceutica, NV, priority 2003, dated 2013).

Assay [1] concerns Dextran Sulfate Sodium Induced Colitis. As to the kind of experiment: Mouse Colitis Model (Dextran Sulfate Sodium Induced Colitis). The class given is in vivo, mice. The following applies: 5% DSS in drinking water, twice daily, orally, 0.05-30 mg/kg. The source says:
These are similar to what occurs in human colitis.
Balb/c female mice are provided with a solution of tap water containing 5% DSS (ICN chemicals) ad libitum over a 7-day period. […] This material may be administered orally or intraperitoneally, once or twice daily. At the end of this period, the animals are euthanized and their colons are collected for further analysis. Among the parameters analyzed are the length of the colon starting from 1 cm above the anus to the top of the cecum, the weight of the colon, the consistency of any stools found within the colon, and the gross macroscopic appearance of the colon. The distal colon between the 1st and the 4th centimeter are dissected into two halves. One half is placed in 10% neutral buffered formalin for later histological analysis if desired. The other half is cleaned in a bath of physiological buffer, patted dry, weighed and then placed in a solution of 0.5% hexadecyltrimethylammonium bromide (HTAB; Sigma) dissolved in 50 mM phosphate buffer, adjusted to pH 5.4. The tissue sample thus treated is then frozen at −80° C.
For the following parameters, colon length, colon weight, stool consistency and appearance and macroscopic damage a scoring system is used to describe the changes. The 4 scores for each animal are added to provide a Total Score. Thus,
Stool Score: • 0=normal (well-formed fecal pellets); • 1=loosely-shaped moist pellets; • 2=amorphous, moist, sticky pellets; • 3=bloody diarrhea. Presence of blood in stool: add 1 to scores <3
Colon Damage Score: • 0=no inflammation • 1=reddening mild inflammation; • 2=moderate inflammation or more widely distributed; • 3=severe inflammation and/or extensively distributed
Colon Weight Score: • 0=<5% weight loss; • 1=5-14% weight loss; • 2=15-24% weight loss; • 3=25-35% weight loss; 4=>35% weight loss.
Colon Length Score: • 0=<5% shortening; • 1=5-14% shortening; • 2=15-24% shortening; • 3=25-35% shortening; • 4=>35% shortening.
Colon weight changes and colon length changes are also directly measured and the net changes compared to DSS and untreated controls are used to calculate a % inhibition of colon weight loss or colon shrinkage induced by DSS treatment.
The tissue sample previously frozen at −80° C. in 0.5% solution of HTAB is thawed, homogenized twice for 15 seconds using a Brinkman Polytron homogenizer fitted with a TS10 generator. The crude homogenate is next sonicated at 60 watts for two 5-second bursts and then centrifuged for 20 minutes at 15000×g. The supernatant of this homogenate is collected, aliquoted and frozen at −70° C. for future analysis for myeloperoxidase analysis (MPO). MPO is an intracellular enzyme found in neutrophils and can be considered a surrogate marker for neutrophil infiltration into tissues, including those afflicted with colitis (Diaz-Granados, et al., 2000).
Statistical analyses were performed by ANOVA using Multiple Comparisons Test and Tukey's test.

Assay [2] deals with carrageenan paw-induced thermal hyperalgesia. As to the kind of experiment: Carrageenan Paw-induced Thermal Hyperalgesia. The class given is in vivo, mice or rats. Conditions: 30 mg/kg po; read-out: % Recovery.
In assay [3] the test system is rings of bronchial tissue obtained from male guinea pigs. The assay is described as follows: Guinea Pig Bronchial Ring Constriction. Conditions: tissues exposed to compound for 30 min; capsaicin 10 nM-10 μM; FIG. 7. The method, then:
Two mm rings of bronchial tissue obtained from male guinea pigs were suspended in normal Krebs solution between two wire hooks under an initial loading tension of 1 gram. The saline was maintained in a 5% CO2 and 95% O2 atmosphere at 37° C. in the presence of indomethacin (5 μM). A sub-maximal dose of 5-methylfurmethide (5 Mef, 1 μM) was added to each tissue to determine responsiveness using an isometric force transducer. After washout, tissues were exposed to compounds or vehicle for 30 min and treated with thiorphan (10 μM, 5% Na2CO3). A concentration-response curve was then constructed using capsaicin (10 nM-10 μM) increasing in 0.5 log unit increments. The dose response curve was calculated as % max of the 5-Mef response and estimated pA2 were determined.

Assay [4] concerns mice. As to the kind of experiment: Hot-plate test, reference compounds. Conditions: i.p., pre-treat time 30 min. The assay is classed as in vivo. From the text: The hot-plate test originally described by Eddy and Leimbach (J. Pharmacol. Exp. Ther. 107:385-393, 1953) with minor modifications (e.g., O'Callaghan and Holtzman, J. Pharmacol. Exp. Ther. 192: 497-505, 1975) is used to ascertain the analgesic potential of compounds.
Generally, male, Swiss-derived albino mice (CRS-CD1®; Charles River Laboratories), weighing 18-24 g at the time of testing or male Sprague Dawley rats (CD1, Charles River Laboratories) 100-300 g are used. The animals are weighed, placed in a plastic box with wood chips (typically 10 mice or 4-6 rats per box) and allowed to acclimate before testing. […]
An animal is placed on the heated surface and the time interval between placement and a shaking, licking or tucking of the hindpaw is recorded as the control reaction time (RTC). […] A percent maximum possible effect (% MPE) can also be calculated from the following formula: % MPE=100×(RTdc−RTc)/(CO−RTc), where RTdc and RTc are drug-treated and control reaction times, respectively, and CO is cut-off time.
As a screen, the largest possible nontoxic dose of test drug is administered. If activity is detected, and if appropriate, generally 3-5 doses (usually 10 mice or 6-8 rats per dose) are used to construct a dose response curve or time course. […] The ED50 value is determined at the time of peak effect.
A general note: Hot-plate and tail-flick tests time the reaction to a heat stimulus.

Consider `CN(c1ccc(C(=O)Nc2cnc3ccccc3c2)cc1)C1CCCCC1` [Example 102, 4-(Cyclohexyl-methyl-amino)-N-quinolin-3-yl-benzamide], for which the “inhibition of colon weight loss” value in assay [1] (FIG. 1) is listed as “significant (p<0.05) inhibition”. The “inhibition of colon shrinkage” value in assay [1] (FIG. 2) is “significant (p<0.05) inhibition”. For the same molecule, the “Colon Damage Score” value in assay [1] (FIG. 3) is reported as “diminished (p>0.05), but not statistically significantly”. The “Stool Score” value in assay [1] (FIG. 4) is reported as “decreased (p>0.05), but not statistically significantly”. The “inhibition of Total Score” value in assay [1] (FIG. 5) is given as “significant (p<0.05) inhibition”. Moreover, in assay [1] (colon tissue, FIG. 6), the “Myleoperoxidase (MPO) inhibition” value was “inhibition (p>0.05)”. Besides, the inhibition in vivo at 30 mg/kg in assay [2] was 55%.

In the case of `O=C(Nc1cnc2ccccc2c1)c1ccc(N2CC3CCCC(C3)C2)cc1` [Example 178, 4-(3-Aza-bicyclo[3.3.1]non-3-yl)-N-quinolin-3-yl-benzamide], the “shift of the capsaicin dose-response curve” value in assay [3] is listed as “shifted the capsaicin dose-response curve to the right”.

For the molecule `Cc1cc(CC(=O)O)n(C)c1C(=O)c1ccc(Cl)cc1` [Zomepirac], the “ED50 (95% C.I.)” value in assay [4] was “inactive”.
